Experiments:
[1] = target: T1, Mcl-1 protein (residues 171-323) (Homo sapiens, UniProt Q07820); assay: Inhibition of Mcl-1 by fluorescence polarization (FP) competitive binding assay; conditions: FAM-Bid tracer 2 nM, Mcl-1 20 nM, 30 min
T1 construct: Tag-free Mcl-1 protein (residues 171-323) was used in the FP assay
Method: Inhibition of Mcl-1 by Fluorescence Polarization (FP) Assay.
The method used a fluorescein labelled peptide (FAM-Bid) which binds to the Mcl-1 protein leading to an increased anisotropy measured in milli-polarization (mP) values using a plate reader.
A 10-points serial dilution of each compound was prepared in DMSO and 5 μL solution was transferred into flat bottomed, 96-well back plate (final DMSO concentration 5%). 120 μL of Buffer (PBS, 0.01% BGG (Sigma Cat. #SRE0011), 0.01% Triton X-100), containing the Fluorescein labelled peptide (Final concentration 2 nM) and Mcl-1 protein (final concentration 20 nM) was then added. […] 10-points dose response curves were plotted with GraphPad software using Sigmoidal Dose-Response Model and the IC50 values were determined by nonlinear regression fitting of the competition curves.

[2] = system: NCI-H929 cells; assay: Cell viability assay (NCI-H929 cells), CCK-8; format: cell-based; conditions: Homo sapiens, NCI-H929, 24 h, WST, 5% FBS
Method: Cell Viability Assay (NCI-H929 Cells)
NCI-H929 cells were obtained from American Type Culture Collection (ATCC). Cells were maintained in the recommended culture medium (RPMI 1640) with 10% FBS and 0.05 mM BME at 37° C. and an atmosphere of 5% CO2.
The effect of Compounds on cell viability was determined using Cell Counting Kit-8 (CCK-8) assay according to the manufacturer's instructions. 95 μL of NCI-H929 cell suspension (20000 cells/well) in culture medium were seeded into 96-well plates and cultured 4 hrs. Each tested compound was serially diluted in DMSO, then 5 μL of the compound or DMSO was diluted in 95 μL medium once more. At last, 5 μL of the compound dilution was added to the corresponding well of the cell plate. After the addition of the tested compound, the cells were incubated at 37° C. in an atmosphere of 5% CO2 for 24 hrs. At the end, 10 μL of CCK-8 solution was added to each well of the plate and incubated for 1-4 hours. The plates were read at 450 nm on the microplate reader (BioTek Synergy 1MF). The readings were normalized to the vehicle cells, and the IC50 was calculated by nonlinear regression analysis using GraphPad Prism 6 software.

[3] = system: OPM-2 cells; assay: Cell viability assay (OPM-2 cells), CCK-8; format: cell-based; conditions: Homo sapiens, OPM-2, 24 h, WST, 5% FBS, read-out: OPM2 (WST, 5% FBS)
Method: Cell Viability Assay (OPM-2 Cells)
OPM-2 cells were obtained from Deutsche Sammlung von Mikroorganismen und Zellkulturen GmbH (DSMZ). […]
The effect of representative Compounds of the Disclosure on cell viability was determined using Cell Counting Kit-8 (CCK-8) assay (Shanghai Life iLab Bio Technology) according to the manufacturer's instructions. Each tested compound was serially diluted in culture medium, 100 μL of the compound dilution was added into 96-well plates. 100 μL of an OPM-2 cell suspension (20000 cells/well) in culture medium were seeded into the corresponding well of the plate and the cells were incubated at 37° C. in an atmosphere of 5% CO2 for 24 hours. In the next day, 20 μL of CCK-8 solution was added to each well of the plate and incubated for 4 hours.
The plates were read at 450 nm on the microplate spectrophotometer (SpectraMax plus 384, Molecular devices). The readings were normalized to the vehicle cells, and the IC50 was calculated by nonlinear regression analysis using GraphPad Prism 6 software.

T1 sequence (Q07820 171-323): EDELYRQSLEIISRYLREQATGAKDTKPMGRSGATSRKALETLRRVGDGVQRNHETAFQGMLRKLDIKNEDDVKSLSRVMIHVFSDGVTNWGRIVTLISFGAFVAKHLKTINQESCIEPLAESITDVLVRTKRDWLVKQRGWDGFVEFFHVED

Row | SMILES | IC50 [1] [nM] | IC50 [2] [nM] | IC50 [3] [nM]
1 | Cn1nc2cc1CSc1cc(c3ccccc3c1)OCCCc1c(C(=O)O)n(C)c3c(c(Cl)ccc13)-c1c(nn3c1CCCC3)CSC2 [compound 20, (Z)-1^6-chloro-1^1,6^1-dimethyl-2^4,2^5,2^6,2^7-tetrahydro-1^1H,6^1H-10-oxa-4,8-dithia-2(3,2)-pyrazolo[1,5-a]pyridina-1(7,3)-indola-6(3,5)-pyrazola-9(3,1)-naphthalenacyclotridecaphane-1^2-carboxylic acid] | 15.2 | 49 | 174
2 | Cn1nc2cc1CSc1cc(c3ccccc3c1)OCCCc1c(C(=O)O)n(C)c3c(c(Cl)ccc13)-c1c(nn3c1OCCC3)CSC2 [compound 22, (Z)-1^6-chloro-1^1,61-dimethyl-2^6,2^7-dihydro-1^1H,2^5H,6^1H-10-oxa-4,8-dithia-2(3,2)-pyrazolo[5,1-b][1,3]oxazina-1(7,3)-indola-6(3,5)-pyrazola-9(3,1)-naphthalenacyclotridecaphane-1^2-carboxylic acid] | 15.9 | 225 | 1150
3 | Cn1nc2cc1CSc1cc(c3ccccc3c1)OCCCc1c(C(=O)O)n(C)c3c(c(Cl)ccc13)-c1c(nn3c1CN(S(C)(=O)=O)CC3)CSC2 [compound 25, (Z)-1^6-chloro-1^1,6^1-dimethyl-2^5-(methylsulfonyl)-2^4,2^5,2^6,2^7-tetrahydro-1^1H,6^1H-10-oxa-4,8-dithia-2(3,2)-pyrazolo[1,5-a]pyrazina-1(7,3)-indola-6(3,5)-pyrazola-9(3,1)-naphthalenacyclotridecaphane-1^2-carboxylic acid] | 14.9 | 4970 | 9050
4 | Cn1nc2cc1CSc1cc(c3ccc(F)cc3c1)OCCCc1c(C(=O)O)n(C)c3c(c(Cl)ccc13)-c1c(nn3c1CCCCC3)CSC2 [compound 28, (Z)-1^6-chloro-9^6-fluoro-1^1,6^1dimethyl-2^5,2^6,2^7,2^8-tetrahydro-1^1H,2^4H,6^1H-10-oxa-4,8-dithia-2(3,2)-pyrazolo[1,5-a]azepina-1(7,3)-indola-6(3,5)-pyrazola-9(3,1)-naphthalenacyclotridecaphane-1^2-carboxylic acid] | 15.9 | 55 | 184
5 | Cc1cc2ccc1CSCc1nn3c(c1-c1c(Cl)ccc4c(c(C(=O)O)n(C)c14)CCCOc1cc(cc4cc(F)ccc14)SC2)CCC3 [compound 29, 1^6-chloro-9^6-fluoro-1^1,6^2-dimethyl-2^5,2^6-dihydro-1^1H,2^4H-10-oxa-4,8-dithia-1(7,3)-indola-2(3,2)-pyrrolo[1,2-b]pyrazola-9(3,1)-naphthalena-6(1,4)-benzenacyclotridecaphane-1^2-carboxylic acid] | 14.9 | 158 | 348
6 | Cn1c(C(=O)O)c2c3ccc(Cl)c(c31)-c1c(nn3c1CCC3)CSCc1ccc(cn1)CSc1cc(c3ccc(F)cc3c1)OCCC2 [compound 31, 1^6-chloro-9^6-fluoro-1^1-methyl-2^5,2^6-dihydro-1^1H,2^4H-10-oxa-4,8-dithia-1(7,3)-indola-2(3,2)-pyrrolo[1,2-b]pyrazola-6(2,5)-pyridina-9(3,1)-naphthalenacyclotridecaphane-1^2-carboxylic acid] | 14 | 63 | 125
7 | CC(=O)N1Cc2cc(n(C)n2)CSc2cc(c3ccccc3c2)OCCCc2c(C(=O)O)n(C)c3c(c(Cl)ccc23)-c2c(nn(C)c2C)C1 [compound 35, (Z)-4-acetyl-1^6-chloro-1^1,2^1,2^5,6^1-tetramethyl-1^1H,2^1H,6^1H-10-oxa-8-thia-4-aza-1(7,3)-indola-2(4,3),6(3,5)-dipyrazola-9(3,1)-naphthalenacyclotridecaphane-1^2-carboxylic acid] | 16 | 215 | 763
8 | Cn1nc2cc1CSc1cc(c3ccc(F)cc3c1)OCCCc1c(C(=O)O)n(C)c3c(c(Cl)ccc13)-c1c(nn3c1CCC3)CN(S(=O)(=O)Cc1ccccc1)C2 [compound 41, (Z)-4-(benzylsulfonyl)-1^6-chloro-9^6-fluoro-1,6^1-dimethyl-2^5,2^6-dihydro-1^1H,2^4H,6^1H-10-oxa-8-thia-4-aza-1(7,3)-indola-2(3,2)-pyrrolo[1,2-b]pyrazola-6(3,5)-pyrazola-9(3,1)-naphthalenacyclotridecaphane-1^2-carboxylic acid] | 12 | 366 | 327
9 | Cn1nc2cc1CSc1cc(c3ccc(F)cc3c1)OCCCc1c(C(=O)O)n(C)c3c(c(Cl)ccc13)-c1c(nn3c1COCC3)CN(S(C)(=O)=O)C2 [compound 42, (Z)-1^6-chloro-9^6-fluoro-1^1,6^1-dimethyl-4-(methylsulfonyl)-2^6,2^7-dihydro-1^1H,2^4H,6^1H-10-oxa-8-thia-4-aza-2(3,2)-pyrazolo[5,1-c][1,4]oxazina-1(7,3)-indola-6(3,5)-pyrazola-9(3,1)-naphthalenacyclotridecaphane-1^2-carboxylic acid] | 17 | 261 | 357
10 | Cn1nc2cc1CSc1cc(c3ccc(F)cc3c1)OCCCc1c(C(=O)O)n(C)c3c(c(Cl)ccc13)-c1c(nn3c1COCC3)CN(S(=O)(=O)C1CC1)C2 [compound 43, (Z)-1^6-chloro-4-(cyclopropylsulfonyl)-9^6-fluoro-1^1,6^1-dimethyl-2^6,2^7-dihydro-1^1H,2^4H,6^1H-10-oxa-8-thia-4-aza-2(3,2)-pyrazolo[5,1-c][1,4]oxazina-1(7,3)-indola-6(3,5)-pyrazola-9(3,1)-naphthalenacyclotridecaphane-1^2-carboxylic acid] | 12 | 190 | 451
11 | Cc1c2c(nn1C)CN(S(=O)(=O)C(F)(F)F)Cc1cc(n(C)n1)CSc1cc(c3ccc(F)cc3c1)OCCCc1c(C(=O)O)n(C)c3c-2c(Cl)ccc13 [compound 46, (Z)-1^6-chloro-9^6-fluoro-1^1,2^1,2^5,6^1-tetramethyl-4-((trifluoromethyl)sulfonyl)-1^1H,2^1H,6^1H-10-oxa-8-thia-4-aza-1(7,3)-indola-2(4,3),6(3,5)-dipyrazola-9(3,1)-naphthalenacyclotridecaphane-1^2-carboxylic acid] | 12 | 61 | 49
12 | Cc1c2c(nn1C)CN(CCO)Cc1cc(n(C)n1)CSc1cc(c3ccccc3c1)OCCCc1c(C(=O)O)n(C)c3c-2c(Cl)ccc13 [compound 50, (Z)-1^6-chloro-4-(2-hydroxyethyl)-1^1,2^1,2^5,6^1-tetramethyl-1^1H,2^1H,6^1H-10-oxa-8-thia-4-aza-1(7,3)-indola-2(4,3), 6(3,5)-dipyrazola-9(3,1)-naphthalenacyclotridecaphane-1^2-carboxylic acid] | 20 | 66 | 388
13 | Cn1nc2cc1CSc1cc(c3ccc(F)cc3c1)OCCCc1c(C(=O)O)n(C)c3c(c(Cl)ccc13)-c1c(C(F)F)nn(C)c1CN(S(C)(=O)=O)C2 [compound 51, (Z)-1^6-chloro-2^3-(difluoromethyl)-9^6-fluoro-1^1,2^1,6^1-trimethyl-4-(methylsulfonyl)-1^1H,2^1H,6^1H-10-oxa-8-thia-4-aza-1(7,3)-indola-2(4,5),6(3,5)-dipyrazola-9(3,1)-naphthalenacyclotridecaphane-1^2-carboxylic acid] | 19 | 110 | 152

— US12319703B2, “Macrocyclic fused pyrazoles as Mcl-1 inhibitors” (ASCENTAGE PHARMA (SUZHOU) CO., LTD., priority 2019, dated 2025)
